Laboratory results from patent US12564568B2, “PKC pathway in Parkinson's Disease” (CEDARS-SINAI MEDICAL CENTER, priority 2018, dated 2026).
Entries after “also recorded” stand apart in the source; their conditions may differ. Like-named read-outs stand apart in the source and are kept apart here. Where a SMILES comes first, the peptide text is derived from it. The star is where a group is joined. Cbz = O=C(OCc1ccccc1)*

Columns and labels:
[1] = test system: tyrosine hydroxylase (TH); format: cell-based, human; conditions: mDA cultures, phorbol ester PKC agonists; PMA 10 μM, PRO 5 μM, day 27-30
Method: (§1) iPSC maintenance, mDA neuron differentiation and drug treatments: iPSCs were maintained in E8 media on Matrigel and passaged every 5 days at split ratios from 1:6 to 1:12 as needed using Versene. Only iPSCs between passage 17 and passage 35 were used in this study. For differentiation, iPSCs were grown to ˜80% confluency. Cells were singularized with Accutase (Millipore/Sigma #SCR005) (5 minutes at 37° C.) and plated onto Matrigel-coated 6-well plates (BD Biosciences) at 200K cells per cm^2 (for a fully confluent monolayer) in E8 media with 5 μM Y27632 (StemGent). 24 hours after plating, media was changed to Stage 1 (50% DMEM/F12, 50% Neurobasal, N2, B27-Vitamin A, LDN-193189 (LDN), SB431542 (SB)). Stage 1 media was changed each day (3 mL per well) for 3 days. Media was next switched to Stage 2 (50% DMEM/F12, 50% Neurobasal, N2, B27-Vitamin A, LDN, SB, Purmorphamine (PMN), CHIR99021 (CHIR), Sonic hedgehog (SHH), Fibroblast Growth Factor 8 (FGF8)). Stage 2 media was changed each day (3 mL per well) for 4 days. Media was then switched to Stage 3 (50% DMEM/F12, 50% Neurobasal, N2, B27-Vitamin A, LDN, CHIR, all-trans-Retinoic acid (ATRA)). Stage 3 media was changed each day (3 mL per well) for 4 days. Finally, media was switched to Stage 4 (50% DMEM/F12, 50% Neurobasal, N2, B27+Vitamin A, Brain-Derived Neurotrophic Factor (BDNF), Glial Cell Line-Derived Neurotrophic Factor (GDNF), dibutyryl cyclic-AMP sodium salt (dbCAMP), L-Ascorbic Acid (AA), γ-Secretase inhibitor (DAPT), CHIR, Transforming Growth Factor beta-3 (TGF β3)). Stage 4 media was changed each day (3 mL per well) for 3 days. On day 15, cells were dissociated to single cells using Accutase (20 mins at 37° C.) and gently lifted. Dissociated cells were resuspended in Maturation Medium (50% DMEM/F12, 50% Neurobasal, N2, B27+Vitamin A, BDNF, GDNF, dbCAMP, AA, DAPT, TGF3) plus 5 μM Y27632 and reseeded onto Matrigel-coated 6-well plates at 200 k/cm^2 in 1 mL total volume or onto Matrigel-coated L-glass coverslips in a 24-well plate at 200 k/50 μL drop. Cells were allowed to attach for 45 mins at 37° C. and Maturation Medium was then added to final volumes of 3 mL per well for 6-well plates or 1.5 mL per well for 24-well plates with coverslips. A full medium change was performed 48-hours post-seeding and medium was changed every 3 days until day 30. For drug treatments, cells at day-27 were fed with Maturation Medium containing the indicated drug and cells were analyzed at day 30.
Analytical flow cytometry: Day-30 cultures in 6-well plates were washed once in phosphate buffered saline (PBS) then 1 mL Accutase was added to each well and incubated for 25 mins at 37° C. or until the cells fully lifted. Cells were washed with an additional 2 mL Maturation Medium and very gently triturated until large clumps were no longer visible at which point cells were pelleted by centrifugation (1500 RPM for 3 mins). Cells were gently resuspended in 4% paraformaldehyde (PFA) in PBS and allowed to fix for 10-15 mins at room temperature. Fixed single cells were permeabilized using 1% Trition X-100 (Sigma-Aldrich) and stained using primary antibodies against TH (1:500 Immunostar, 22941), α-synuclein (1:1000 Abcam, ab138501), and MAP2ab (1:1000 Sigma-Aldrich, M1406), or isotype controls at same dilution (Cell Signaling IgG Isotype Control rabbit #3900S and mouse #5415S). Secondary antibodies (Alexa Fluor 488 and 594 donkey anti-mouse and donkey anti-rabbit, Invitrogen) were used at 1:500. Stained samples were quantified on an LSR Fortessa cytometer using BD FACSDiva software.
Immunocytochemistry and imaging: mDA neuron cultures were plated on L-glass coverslips and grown as above. Day 30 neurons were fixed in 4% PFA at room temperature for 10-15 mins. […]

[2] = test system: p-PKCα; conditions: for phospho PKCα level: D30 mDA neurons (FIG. 37)
[3] = test system: α-synuclein; experiment: α-synuclein protein level in day 30 iPSC-derived mDA (DaN) cultures after drug treatment (western blot, immunostaining); format: cell-based, human; conditions: for α-synuclein level: phorbol ester PKC agonists, PMA 10 μM, PRO 5 μM, day 27-30; for α-synuclein levels (western blot): EOSPD/PD cultures (190iPD); for α-synuclein levels (western blot) / amount of α-synuclein protein (western blot): treated 3 days from day 27, PEP005 1 μM, SMER-28 5 μM, Trehalose; for synuclein level: D30 mDA neurons (FIG. 37); for amount of α-synuclein protein (western blot): control line cultures (02iCTR)
Method: as §1
Immunocytochemistry and imaging: mDA neuron cultures were plated on L-glass coverslips and grown as above. Day 30 neurons were fixed in 4% PFA at room temperature for 10-15 mins. Fixed coverslips were washed in PBS and permeabilized for 10 minutes at room temperature in 1% Triton X-100 in PBS, followed by staining in primary antibody solution (5% normal donkey serum, 0.125% Triton-X, PBS) overnight at 4° C. with the following antibodies: TH (1:5000, Immunostar #22941) and α-synuclein (1:500, Abcam #ab138501). Samples were washed 3 times in PBS and stained with species-specific Alexa Fluor 488 or 594-conjugated secondary antibodies (1:500, Invitrogen) for 2 hours at room temperature, followed by DAPI counterstain. Confocal Z-stack images were acquired using a A1 microscope (Nikon) with 40× and 20× objectives and rendered using maximum intensity projection through IMARIS software (Bitplane).
Western blot: Cells were gently scraped off the plates, washed with PBS, centrifuged at 15000 RPM for 1 min, and dry pellets were frozen at −80° C. Samples were then thawed and lysed using 1×NETN buffer (20 mM Tris-HCl (pH 8.0), 100 mM NaCl, 0.5 mM EDTA and 0.5% NP-40) supplemented with phosphatase/protease inhibitor cocktail (MS-SAFE, Sigma-Aldrich). Lysates were sonicated in an automated cold bath sonicator for 20 mins using alternating 10 sec pulses followed by 10 sec rests. Samples were centrifuged for 20 min at 4° C. at 15000 RPM. Total soluble protein concentrations were measured using a Bradford assay (BIO-RAD). […]

[4] = test system: P53; experiment: P53 level in mDA cultures under proteasome inhibitor, 24 hrs (western blot); format: cell-based, human; conditions: mDA/DaN cultures, 24 hrs treatment
Method: Protein degradation can be largely divided into protosomal and autophagy/lysosomal degradation pathways.
Western blot: Cells were gently scraped off the plates, washed with PBS, centrifuged at 15000 RPM for 1 min, and dry pellets were frozen at −80° C. Samples were then thawed and lysed using 1×NETN buffer (20 mM Tris-HCl (pH 8.0), 100 mM NaCl, 0.5 mM EDTA and 0.5% NP-40) supplemented with phosphatase/protease inhibitor cocktail (MS-SAFE, Sigma-Aldrich). Lysates were sonicated in an automated cold bath sonicator for 20 mins using alternating 10 sec pulses followed by 10 sec rests. Samples were centrifuged for 20 min at 4° C. at 15000 RPM. Total soluble protein concentrations were measured using a Bradford assay (BIO-RAD). […] Combined α-synuclein and p-PKCα expression plots were calculated by first normalizing bands to β-actin, then to the 02iCTR signal present in each blot. […] ROC plot and area under the curve was determined using R package ROCR to determine predicative probability percentages.
To test overall degradation rates, global […] function was inhibited in culture for 48 hours via cycloheximide treatment and protein was assessed and quantified over time. […] A significant reduction in the amount of LAMP1 was detected in all 3 EOSPD lines, which was consistent with the proteomics analysis. […]

[5] = test system: α-synuclein; experiment: α-synuclein protein level in day 30 iPSC-derived mDA (DaN) cultures after drug treatment (western blot, immunostaining); format: cell-based, human; conditions: control and EOSPD cultures, 24 hrs treatment

CCCCCCCCCCCCCC(=O)O[C@@H]1[C@@H](C)[C@@]2(O)[C@@H](C=C(CO)C[C@]3(O)C(=O)C(C)=C[C@@H]23)[C@@H]2C(C)(C)[C@]12OC(C)=O [PMA, Phorbol 12-myristate 13-acetate]
TH level [1]: increases
p-PKCα level ([2]; mDA cultures, phorbol ester PKC agonists, PMA 10 μM, PRO 5 μM, day 27-30): reduction
α-synuclein level ([3]; mDA cultures): reduction

CC(=O)O[C@@]12C[C@@H](C)[C@@]3(O)[C@@H](C=C(CO)C[C@]4(O)C(=O)C(C)=C[C@@H]34)[C@@H]1C2(C)C [PRO, Prostratin]
TH level [1]: increases
α-synuclein expression, dose response ([3]; dose response study, mDA cultures): decreased
α-synuclein level ([3]; mDA cultures): reduction

CC(C)C[C@@H](C=O)NC(=O)[C@H](CC(C)C)NC(=O)[C@H](CC(C)C)NC(=O)OCc1ccccc1 [MG132] (Cbz-Leu-Leu-Leu-aldehyde)
P53 level [4]: accumulation
α-synuclein levels under proteasome inhibition [5]: no significant increase; also recorded: no substantial change

OC[C@H]1O[C@H](O[C@H]2O[C@H](CO)[C@@H](O)[C@H](O)[C@H]2O)[C@H](O)[C@@H](O)[C@@H]1O [Trehalose]
α-synuclein levels (western blot) [3]: reduced; also recorded: reduction

CCC/C=C/C=C/C(=O)O[C@H]1/C(=C/C(=O)OC)C[C@H]2C[C@H]([C@@H](C)O)OC(=O)C[C@H](O)C[C@@H]3C[C@H](OC(C)=O)C(C)(C)[C@](O)(C[C@@H]4C/C(=C/C(=O)OC)C[C@H](/C=C/C(C)(C)[C@]1(O)O2)O4)O3 [Bryostatin 1]
phospho PKCα level [2]: reduction
phospho PKCα level ([2]; listed as Bryostratin): did not seem to affect
synuclein level [3]: unclear effects
synuclein level ([3]; listed as Bryostratin): did not seem to affect

C=CCNc1ncnc2ccc(Br)cc12 [SMER28]
α-synuclein levels (western blot) [3]: not
amount of α-synuclein protein (western blot) [3]: significantly reduced
amount of α-synuclein protein (western blot) ([3]; listed as SMER-28): reduction
